Results on 21 compounds are retold here after patent US7825121B2, “Piperazine derivatives useful as CCR5 antagonists” (Schering Corporation, priority 1999, dated 2010).

The nature of data set [1]: Excretion of radioactivity after single oral dose of 14C-Vicriviroc, monkey. Format: in vivo, Monkey (Cynomolgus macaque). The note with it: 5 mg/kg single oral, total 0-432 hr.
Procedure: (§4) [drawing 410] was synthesized at Schering-Plough Research Institute (Kenilworth, N.J.) and had >97% radiochemical purity.
(§5) Sample Collection: Urine and feces over selected intervals and blood at selected time points were collected from healthy male volunteers, monkeys and rats through 336-hr, 432-hr and 168-hr post dose, respectively. Radioactivity: Total radioactivity was measured using liquid scintillation spectrometer (LSS). Sample Processing for Profiling and Characterization of Metabolites: Sample Pooling: For each species, plasma samples were pooled across subjects/animals by time point. All the other matrices were first pooled for a desired collection interval within each subject/animal and then across subjects/animals to obtain a composite sample containing >90% of the radioactivity excreted in each respective matrix.
Data set [2] in a line: Excretion of radioactivity after single oral dose of 14C-Vicriviroc, rat. The data set is classed as in vivo, Rat (Sprague Dawley). The note with it: 6 mg/kg single oral, total 0-168 hr.
Procedure: as §4, §5
The target of data set [3] is T1, human CCR5 chemokine receptor (Homo sapiens, UniProt P51681).
T1 construct: expressed in transfected cells; host or cells: NIH 3T3 cells (murine), membranes
T1 sequence (P51681 whole entry): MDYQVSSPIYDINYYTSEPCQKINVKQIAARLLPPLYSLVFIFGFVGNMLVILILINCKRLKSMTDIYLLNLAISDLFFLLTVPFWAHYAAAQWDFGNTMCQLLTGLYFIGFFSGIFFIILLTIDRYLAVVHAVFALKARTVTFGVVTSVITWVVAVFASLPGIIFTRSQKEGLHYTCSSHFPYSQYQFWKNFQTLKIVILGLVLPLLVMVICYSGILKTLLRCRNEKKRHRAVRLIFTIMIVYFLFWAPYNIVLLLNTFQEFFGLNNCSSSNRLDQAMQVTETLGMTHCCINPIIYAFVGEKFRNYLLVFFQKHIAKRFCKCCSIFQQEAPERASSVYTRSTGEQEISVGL
Briefly: CCR5 membrane binding assay (inhibition of RANTES binding). The note with it: 125I-RANTES, membranes from NIH 3T3 cells expressing human CCR5. The procedure:
CCR5 Membrane Binding Assay:
A high throughput screen utilizing a CCR5 membrane binding assay identifies inhibitors of RANTES binding. This assay utilizes membranes prepared from NIH 3T3 cells expressing the human CCR5 chemokine receptor which have the ability to bind to RANTES, a natural ligand for the receptor. […] Compounds are serially diluted over a wide range of 0.001 ug/ml to 1 ug/ml and tested in triplicates. Reaction cocktails are harvested through glass fiber filters, and washed thoroughly.
In the table, “Ex. No.” stands for “Example Number” and “nM” stands for “nanomolar.”

Data set [4] can be described thus: Profiling of Vicriviroc and metabolites in plasma, urine and feces, human. Format: in vivo. The procedure:
(§1) HPLC column was maintained at room temperature for all LC-MS and LC-MS^n experiments. The mobile phase, which consisted of 95% 10-mM ammonium acetate (pH 6.0) containing 5% acetonitrile (A) and 95% acetonitrile and 5% water (B), was maintained at a constant flow rate (1 mL/min). For all LC-MS experiments, the column effluent was split to divert 20-25% into TSQ Quantum (ThermoElectron, San Jose, Calif.) mass spectrometer and the balance into a Flow Scintillation Analyzer (FSA) analyzer.
(§2) All LC-MS and LC-MS/MS experiments were performed using a TSQ mass spectrometer (ThermoElectron, San Jose, Calif.) nominally operated under the conditions listed below:
(§3) Radiochromatograms from study samples were examined to locate radioactive peaks corresponding to metabolites. After correcting for the delay time (0.2-0.5 min), each radiolabelled peak was examined for possible molecular ions related to the drug and/or its putative metabolites.

The nature of data set [5]: Profiling of Vicriviroc and metabolites in plasma, urine and feces, rat. Format: in vivo, Rat (Sprague Dawley). The procedure: as §1, §2, §3
Data set [6] is described as follows: Profiling of Vicriviroc and metabolites in plasma, urine and feces, monkey. The data set is classed as in vivo, Monkey (Cynomolgus macaque). As for the experimental part: as §1, §2, §3

Each structure is given as a SMILES string. Counter-ions that a name gives are not always drawn.

For `COC[C@@H](c1ccc(C(F)(F)F)cc1)N1CCN(C2(C)CCN(C(=O)c3c(C)ncnc3C)CC2)C[C@@H]1C` [^14C-Vicriviroc, 1-[(4,6-dimethyl-5-pyrimidinyl)carbonyl]-4-[4-[2-methoxy-1 (R)-[4-(trifluoromethyl)phenyl]ethyl]-3(S)-methyl-1-piperazinyl]-4-methylpiperidine], the “Excretion of radioactivity as % of dose, feces” value in data set [1] (monkey female) is given as 56.4 % of dose; in data set [1] (monkey male), 48.6 % of dose; in data set [2] (rat female), 72.9 % of dose; in data set [2] (rat male), 69.1 % of dose. Also, the “Excretion of radioactivity as % of dose, urine” value in data set [1] (monkey female) is recorded as 25.8 % of dose; in data set [1] (monkey male), 26.3 % of dose; in data set [2] (rat female), 15.6 % of dose; in data set [2] (rat male), 18.0 % of dose.
The melting point is the temperature of the solid-liquid transition. As for `Cc1cccc(C)c1C(=O)N1CCC(N2CCN([C@@H](C)c3ccccc3)[C@@H](C)C2)CC1` [Example 15], the melting point was determined as 195 °C.
Same read-out and setting: under `C[C@H]1CN(C2(C)CCN(C(=O)C3(c4ccc(C#N)cc4)CC3)CC2)CCN1C(c1ccccc1)c1ccccc1` [Example 30E] stands 84 to 90 °C.
Broadly, the Ki is a dissociation constant, usually derived from enzyme kinetics or from competition with a known ligand. The compound `Cc1ccnc(C)c1C(=O)N1CCC(N2CCN(C(c3ccccc3)c3ccccc3)[C@@H](C)C2)CC1` [Example 3C] showed a Ki in data set [3] of 9.97 nM.
On to `CCC[C@@H](c1ccc(OC(F)(F)F)cc1)N1CCN(C2(C)CCN(C(=O)c3c(C)cccc3C)CC2)C[C@@H]1C` [Example 30], for which the melting point came out at 237 °C.
For the compound `Cc1ccnc(C)c1C(=O)N1CCC(N2CCN(C(c3ccccc3)c3ccccc3)[C@@H](C)C2)CC1` (as salt: hydrochloride) [Example 3C], the melting point was 180 to 188 °C (dec.).
The same measure, in the same setting: the figure for `Cc1cccc(C)c1C(=O)N1CCC(N2CCN([C@@H](C)c3ccc(Cl)cc3)[C@@H](C)C2)CC1` [Example 13] is 180 °C (dec.); for `Cc1cccc(C)c1C(=O)N1CCC(N2CCN([C@@H](C)c3ccc(Cc4ccc(Cl)cc4)cc3)[C@@H](C)C2)CC1` [Example 17] it is 170 °C (dec.).
On the same count and under the same terms, under `CCNC(=O)Nc1cc(C)c(C(=O)N2CCC(C)(N3CCN(C(c4ccccc4)c4ccccc4)[C@@H](C)C3)CC2)c(C)c1` [Example 30D] stands 177 to 189 °C.
Consider `Cc1ncnc(C)c1C(=O)N1CCC(C)(N2CCN(C(COC3OC(C(=O)O)C(O)C(O)C3O)c3ccc(C(F)(F)F)cc3)C(C)C2)CC1` (centres unmarked) [Example M35, O-desmethyl-VIC-glucuronide], for which the “circulating drug derived component in plasma” value in data set [4] (human plasma) is on record as “prominent circulating metabolite”; in data set [5] (rat plasma), “only detected in trace quantities”; in data set [6] (monkey plasma), “prominent circulating metabolite”. In addition, the “% of the dose in urine” value in data set [4] (human urine) was 11%; in data set [5] (rat urine), “less than 1%”; in data set [6] (monkey urine), 3%.
Regarding `CCNC(=O)N(C)c1cc(C)c(C(=O)N2CCC(C)(N3CCN(C(c4ccccc4)c4ccccc4)[C@@H](C)C3)CC2)c(C)c1` [Example 30H], the melting point is 178 to 188 °C.
Consider `Cc1ncnc(C)c1C(=O)N1CCC(C)(N2CCN([C@@H](Cc3ccccc3)c3ccc(C(F)(F)F)cc3)[C@@H](C)C2)CC1`, for which the melting point was 187 to 196 °C.
With `Cc1cccc(C)c1C(=O)N1CCC(N2CCN([C@@H](C)c3ccc(I)cc3)[C@@H](C)C2)CC1` [Example 11], the Ki in data set [3] came out at 10.5 nM.
`CC(=O)c1ccc([C@H](C)N2CCN(C3(C)CCN(C(=O)c4c(C)cccc4C)CC3)C[C@@H]2C)cc1` [Example 22] registered a melting point of 80 to 85 °C.
In turn, `Cc1cccc(C)c1C(=O)N1CCC(N2CCN([C@@H](C)c3ccc(-c4ccccc4)cc3)[C@@H](C)C2)CC1` [Example 16] returned a melting point of 190 °C. In data set [3], the affinity corresponds to a Ki of 60 nM.
Compound `Cc1ncnc(C)c1C(=O)N1CCC(C)(N2CCN(C(c3ccccc3)c3ccccc3)[C@@H](C)C2)CC1` [Example 30C] displayed a melting point of 175 to 178 °C.
Same read-out and setting: the figure for `Cc1ncnc(C)c1C(=O)N1CCC(C)(N2CCN(C(c3ccc(C(F)(F)F)cc3)c3ccc(C(F)(F)F)cc3)[C@@H](C)C2)CC1` [Example 30F] is 180 to 192 °C; for `CC(=O)c1ccc([C@H](C)N2CCN(C3CCN(C(=O)c4c(N)cccc4Cl)CC3)C[C@@H]2C)cc1` [Example 18] it is 210 °C.
For the compound `CC[C@@H](c1ccc(OC(F)(F)F)cc1)N1CCN(C2CCN(C(=O)c3c(C)ncnc3C)CC2)C[C@@H]1C` [Example 6C], the melting point turned out to be 225 °C. Also, the Ki in data set [3] worked out at 30 nM.
Compound `CCC[C@@H](c1ccc(OC(F)(F)F)cc1)N1CCN(C2(C)CCN(C(=O)c3c(C)cc(NC(=O)NCC)cc3C)CC2)C[C@@H]1C` [Example 30B] showed a melting point of 219 °C.
With `CCC[C@@H](c1ccc(OC(F)(F)F)cc1)N1CCN(C2(C)CCN(C(=O)c3c(C)ncnc3C)CC2)C[C@@H]1C` [Example 30A], the melting point stood at 241 °C.
